Measured values: US20120035187A1 (priority 2009, published 2012)

Assays:
[1] = tested on: hamsters with cerebellar ataxia; test: Rotarod test in hamsters with cerebellar ataxia; assay type: in vivo, hamster; conditions: for Time of falling from rotarod: hamster with cerebellar ataxia, agent of Example 1, 0.5 ml/hamster intraperitoneally once a day for 56 days
[2] = tested on: ICR mice administered with amyloid β fragment; test: Novel object recognition test, mouse administered with amyloid β fragment, agents of Example 1; assay type: in vivo; parameters: key: (novel − memorized seeking time)/(novel + memorized seeking time); conditions: agent of Example 1, 0.3 ml/head intraperitoneally once a day up to the 8th day
Experimental: One hundred and thirty ICR mice (commercialized by Charles Liver Laboratories Japan Inc., Kanagawa, Japan) were randomly divided into 13 groups, consisting of 10 mice in each group. Amyloid β fragment, represented by an amino acid sequence of SEQ ID NO: 1, used in Experiment 3 was aged at 37° C. for four days, and administered to the lateral ventricle of each mouse in an amount of 9 nmol/6 μl/mouse (the administration method is referred to “Brain Research”, Vol. 706, pp. 181-193 (1996)). […] The mice (10 heads) in the remaining one group were intraperitoneally administered with a sterilized 10% maltose solution (pyrogen-free) once a day up to the 8th day in an amount of 0.3 ml/mouse (control). On the 8th day after the administration, novel object recognition test (see, Japanese Patent Kokai No. 2008-193941) was performed and the average discrimination index (the ratio of prolonged seeking time for novel object to the total seeking time) as a cognitive function index were shown in Table 26. On the 9th day after the administration, the brain of the mice was anatomically isolated, prepared into tissue samples in conventional manner. Depositions of aggregation of amyloid fragment were observed by staining with Congo red or thioflavin T, and degeneration or defect of hippocampal pyramidal cells concerned with cognitive function. The degeneration or the defect of hippocampal pyramidal cells was evaluated by 4-point grade score, by regarding the condition of the control without administration of amyloid β fragment as “none (O)”, “slight (1)”, “moderate (2)”, and “sever (3)”, and the average scores of 10 mice are shown in Table 20.
An experiment apparatus (a glass box of 30 cm in depth, 45 cm in width, and 30 cm in height) and two kinds of objects to be memorized by mice were provided. On the day before the test, the mice were allowed to seek freely in the experiment apparatus with no seeking object for 10 minutes for acclimation. On the test day, the following test was performed twice at an interval of 60 minutes. In the first trial, the same two objects were placed in the apparatus at its both ends, and the mouse was allowed to seek freely for 10 minutes. On the second trial, one of the objects used in the first test was replaced with a different kind of object, and then the mouse was allowed to seek freely for five minutes. In each experiment, when the mouse brought its muffle close to the object within 1-cm apart from the object, or made its muffle or whiskers to contact with the object, the mouse was judged to have a seeking behavior, and the seeking time thereof was measured. The object discrimination index [={(seeking time for novel object)−(seeking time for memorized object)}/{(seeking time of novel object)+(seeking time of memorized object)}] was calculated. The object discrimination index means the ratio of an increased seeking time for novel object to the total seeking time, and the ratio becomes larger when the memory of the once sought object was more strongly held, and it becomes smaller when the memory was more weakly held.

[3] = tested on: PC12-HS cells; test: Evaluation B: neurite-outgrowth action in presence of NGF; assay type: cell-based, rat; conditions: 3 days

SMILES	Time of falling from rotarod [1] [s]	Object discrimination index [2]	Evaluation B: Neurite-outgrowth action ([3]; 50 μl of 400 ng/ml test sample solution per well + NGF final 5 ng/ml)	improving effect on motor coordination (in words) ([1]; cerebellar ataxia hamsters, agents of Example 1 compared among pentamethine cyanine dye compounds)	Percentage (%) of cells with neurite outgrowth ([3]; 50 μl/well of 2 μg/ml test solution + NGF final 5 ng/ml) [%]
CN(C)c1ccc(/C=C/c2oc3ccccc3[n+]2C)cc1 [NK-528]	37.5 ± 11.2	0.3	∘ (The test sample with a neurite outgrowth rate of 30% or higher was judged to be equivalent or more (∘) compared with NK-4)		
CCCCCCCCCN1C(C)=CS\C1=C/C=C(\C=C\c1scc(C)[n+]1CCCCCCCCC)c1scc(C)[n+]1CCCCCCCCC.[I-].[I-] [NK-393]	86.5 ± 1.8	0.2		particularly high improving effect on motor coordination	68
